Assay results as given in patent publication US7179645B2 (priority 2002, dated 2007).
Read-outs that look alike come from different tables or passages of the source. [ ]: non-standard residue; d: D form. ava = not defined here

How the values were obtained:
[1] = test system: C3H/HeJ mice (H-2^k); antibodies against the PGCC(95–104) epitope peptide; details: mouse, in vivo
[2] = test system: C3H/HeJ mice (H-2^k); antibodies against the PGCC(95–104) epitope peptide; details: mouse, in vivo; remark: listed apart in the source
SJL/J (H-2s) mice = details: mouse, in vivo; cited from earlier work
mice = details: mouse, in vivo; cited from earlier work

Question: With “Ac-LRMK-ava-IAYLKQATAK-NH2 (Ac-LRMK[ava]IAYLKQATAK-NH2; reading uncertain; also: printed as Ac-LRMK-ava-IAYLKQATAK-NH2) [Ii-Key/PGCC]” as the substance, how does the “antibody titers against PGCC epitope” value [1] read?
Answer: Significantly greater antibody titers

Question: What about the “Antibody induction (ELISA), Dilution^−1 1620” value [2] of the same substance?
Answer: 0.071

Question: And the “Antibody induction (ELISA), Dilution^−1 4860” value [2]?
Answer: 0.024

Question: What about the “antibody titers against PGCC epitope” value [2] of the same substance?
Answer: Significantly greater antibody titers

Question: With HCLGKWLGHPDKFVGI [PL139–154] as the substance, how does the “mice with severe clinical and histological EAE” value (SJL/J (H-2s) mice) read?
Answer: 3 of 20

Question: With MOG35–55 as the substance, how does the “encephalitogenic potential (specific T-cell responses, EAE)” value (mice) read?
Answer: induced specific T-cell responses and EAE
